This is an account of results in patent US8026222B2, “Methods of use of glycomimetics with replacements for hexoses and n-acetyl hexosamines” (GlycoMimetics, Inc., priority 2007, dated 2011).

The subject of this assay is human umbilical vein endothelial cells (HUVECS). Put plainly: neutrophil rolling on endothelial cell monolayers under flow conditions (rolling index). Format: cell-based. The note with it: HUVEC monolayers incubated in glycated serum protein for 4 hours, perfused with human neutrophils (FIG. 18, FIG. 19).

Method: Monolayers of human umbilical vein endothelial cells (HUVECS) were incubated in glycated serum proteins (FIG. 18, glycated albumin, Gly-HSA or FIG. 19, glycated hemoglobin, Gly-Hb) for 4 hours. Monolayers were then inserted into a flow chamber and the chamber was perfused with human neutrophils (10^6 cell/ml) at a flow rate corresponding to a wall shear stress of 0.9 dynes/cm^2. Digital images were acquired and analyzed to determine the rolling index (RI) which is a measure of the degree of neutrophil rolling on the endothelial cell monolayer.

For “glycated hemoglobin: glycated serum protein used to stimulate endothelial cells”, the “increase in neutrophil rolling (rolling index)” value was approximately 2.8 fold.
